Data set [1] relates to LPA 18:2 level in mouse plasma. The data set is described as follows: In vitro LPA assay, reduction of LPA 18:2 level in mouse plasma (LC-MS/MS). The data set is classed as biochemical. Particulars: 2 hr at 37° C., LPA 18:2 reduction. How it is done:
(§1) Autotaxin (ATX) plays an important role in lysophosphatidic acid (LPA) signaling. An in vitro LPA assay was conducted to determine IC50 values of the test compounds on reduction of LPA 18:2 level in rat or mouse plasma. This example describes the assay data (IC50 value ranges) of exemplary compounds from LPA assays using mouse and rat plasma. Compound GPLG-1690 was assayed as a reference compound.
(§2) The 10 mM DMSO stock solutions of test compounds and 4-fold serial dilutions of the test compounds were prepared at various concentrations. The diluted solutions of the compounds were diluted with 1×PBS (pH 7.5) buffer. 38 μL of rat or mouse plasma samples were mixed with 2 μL of the diluted solutions of the compounds or 2% DMSO solutions in 96-well plate (final 0.1% DMSO). After incubating for 2 hr at 37° C., 120 μL MeOH containing IS (250 ng/mL of LPA 17:0) was added to each well. Mixture was vortexed for 1 min, and then centrifuged for 30 min (4000 rpm, 4° C.). 100 μL supernatant was transferred to a 96-well plate containing 100 μL pure water and the plate was shaken for 10 min. 5 μL supernatant was injected into LC-MS/MS system. No calibration curve will be prepared for LPA 18:2 and all quantifications were performed based on peak area ratios (LPA 18:2/LPA 17:0). For each concentration of compound LPA data were expressed as percentage of reduction (% reduction) using the formula. 100−[((LPA ratio-LPA ratio in control sample after 0 hr incubation)/(LPA ratio in control sample after 2 hr incubation—LPA ratio in control sample after 0 hr incubation))*100]. Data

Data set [2] concerns LPA 18:2 level in rat plasma. Kind of data set: In vitro LPA assay, reduction of LPA 18:2 level in rat plasma (LC-MS/MS). The format is biochemical. The note with it: 2 hr at 37° C., LPA 18:2 reduction. How it is done:
as §1, §2

A further data set deals with hATX/ENPP2 (Homo sapiens, UniProt Q13822). The data set is described as follows: hATX/ENPP2 biochemical assay using 16:0-LPC as substrate (Amplex Red/choline oxidase/HRP fluorescence). The note with it: hENPP2 2.5 nM, LPC (16:0) substrate. The gist of the method: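 Enzyme preincubated with compounds 15 min at room temperature in 50 mM Tris-HCl pH 8.0, 140 mM NaCl, 5 mM CaCl2, 0.01% Triton X-100. Reaction started with 80 μM LPC (16:0) stock plus Amplex Red/choline oxidase/HRP mix; fluorescence (ex 530/em 590 nm) read kinetically. IC50 from slope between 60 and 70 min.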

The nature of data set [3]: Mouse PK study (IV and PO). The data set is classed as in vivo. The note with it: male, C57BL/6, mouse, plasma, male C57BL/6 mice; for AUC(0-inf): IV 2 mg/kg and PO 10 mg/kg study; for bioavailability / Cmax: po, 10 mg/kg; for bioavailability: IV 2 mg/kg and PO 10 mg/kg, read-out: F % (bioavailability); for Cmax: PO group 10 mg/kg. The procedure: This example describes the pharmacokinetic (PK) data obtained for various compounds of the present disclosure, from studies using mice. The following PK parameters were calculated: • Bioavailability (F %) were calculated using the linear/log trapezoidal rule • Peak plasma concentrations (Cmax (ng/mL)) were taken directly from the plasma concentration vs. time profiles for the PO group • Area under the curve e.g., the area under the concentration curve from time 0 to infinity (AUC0-inf(ng*h/mL)). Experimental Procedures
After intravenous (IV) and oral (PO) administration at 2 mg/kg and 10 mg/kg to male C57BL/6 mice, respectively, the blood samples were collected at the designed sampling time points. All blood samples were transferred into pre-chilled commercial polyethylene microcentrifuge tubes containing K2-EDTA as an anticoagulant. Samples were processed for plasma by centrifugation. Plasma samples was transferred into polypropylene tubes pre-chilled on dry ice and then quickly frozen over dry ice and kept at −70±10° C. until LC-MS/MS analysis. Mice plasma samples were analyzed using qualified bioanalytical methods based on protein precipitation followed by LC-MS/MS analysis. Individual plasma concentration data of each compound was subjected to noncompartmental pharmacokinetic analysis using Phoenix WinNonlin™. Nominal doses were used for pharmacokinetic parameters calculation.

SMILES strings stand for the structures. Where a name gives a salt, the structure may show the parent alone. Where only a bound is given, the exact number is not on record here.

The results in this text go back to patent publication US11970493B2, “Autotaxin inhibitor compounds” (ILDONG PHARMACEUTICAL CO., LTD., priority 2020, dated 2024).

Broadly, the IC50 is the concentration that inhibits the measured activity by half. Read a high IC50 as lower potency. For the molecule `CCc1nc2ccc(-c3cnc(N4CCN(CC(=O)N5CC[C@@H](O)C5)CC4)nc3)cn2c1N(C)c1nc(-c2ccc(F)cc2)c(C#N)s1` [45 (hydrochloride salt), (R)-2-((2-ethyl-6-(2-(4-(2-(3-hydroxypyrrolidin-1-yl)-2-oxoethyl)piperazin-1-yl)pyrimidin-5-yl)imidazo[1,2-a]pyridin-3-yl)(methyl)amino)-4-(4-fluorophenyl)thiazole-5-carbonitrile], the IC50 in data set [1] is 200 to 800 nM; in data set [2] it was not above 200 nM.
Regarding `CCc1nc2ccc(-c3cnc(N4CCN(CC(=O)N5CC[C@H](O)C5)CC4)nc3)cn2c1N(C)c1nc(-c2ccc(F)cc2)c(C#N)s1` [46 (hydrochloride salt), (S)-2-((2-ethyl-6-(2-(4-(2-(3-hydroxypyrrolidin-1-yl)-2-oxoethyl)piperazin-1-yl)pyrimidin-5-yl)imidazo[1,2-a]pyridin-3-yl)(methyl)amino)-4-(4-fluorophenyl)thiazole-5-carbonitrile], the IC50 in data set [1] and in data set [2] was 200 to 800 nM in each case.
Take `CCc1nc2ccc(-c3cnc(N4CCN(C(=O)C5CN(C)C5)CC4)nc3)cn2c1N(C)c1nc(-c2ccc(F)cc2)c(C#N)s1` [79 (hydrochloride salt)]: the IC50 on hATX/ENPP2 is not above 20 nM; in data set [1], 200 to 800 nM; in data set [2], not above 200 nM.
As a reminder, the AUC(0-inf) is the area under the concentration-time curve extrapolated to infinity. The low end stands for less exposure, the high end for more exposure. What is called bioavailability is dose-corrected exposure relative to a reference, in per cent. What is called Cmax is the highest concentration seen after dosing. With `CCc1nc2ccc(-c3cnc(N4CCN(C(=O)C5(C#N)CC5)CC4)nc3)cn2c1N(C)c1nc(-c2ccc(F)cc2)c(C#N)s1` [Compound 1, 2-((6-(2-(4-(1-cyanocyclopropane-1-carbonyl)piperazin-1-yl)pyrimidin-5-yl)-2-ethylimidazo[1,2-a]pyridin-3-yl)(methyl)amino)-4-(4-fluorophenyl) thiazole-5-carbonitrile], on hATX/ENPP2, the IC50 is not above 20 nM. Moreover, in data set [3], the AUC(0-inf) stood at 27200 ng·h/mL, the bioavailability turned out to be 56.5% and the Cmax was 3030 ng/mL.
In the same order, the values of `CCc1nc2ccc(-c3cnc(N4CCN(C(=O)C5(O)CC5)CC4)nc3)cn2c1N(C)c1nc(-c2ccc(F)cc2)c(C#N)s1` [Compound 2, 2-((2-ethyl-6-(2-(4-(1-hydroxycyclopropane-1-carbonyl)piperazin-1-yl)pyrimidin-5-yl)imidazo[1,2-a]pyridin-3-yl)(methyl)amino)-4-(4-fluorophenyl)thiazole-5-carbonitrile] are not above 20 nM, 35100 ng·h/mL, 61% and 4070 ng/mL.
At hATX/ENPP2, `CCc1nc2ccc(-c3cnc(C(=O)N4CCCC4)nc3)cn2c1N(C)c1nc(-c2ccc(F)cc2)c(C#N)s1` [Compound 47, 2-((2-ethyl-6-(2-(pyrrolidine-1-carbonyl)pyrimidin-5-yl)imidazo[1,2-a]pyridin-3-yl)(methyl)amino)-4-(4-fluorophenyl)thiazole-5-carbonitrile] displayed an IC50 of 20 to 200 nM. Besides, in data set [3], the AUC(0-inf) came out at 42300 ng·h/mL, the bioavailability came out at 62.3% and the maximum concentration (Cmax) was determined as 4760 ng/mL.
As for `CCc1nc2ccc(-c3ccc(N4CCN(C(=O)C5CN(C)C5)CC4)nc3)cn2c1N(C)c1nc(-c2ccc(F)cc2)c(C#N)s1` [Compound 86 hydrochloride, 2-((2-ethyl-6-(6-(4-(1-methylazetidine-3-carbonyl)piperazin-1-yl)pyridin-3-yl)imidazo[1,2-a]pyridin-3-yl)(methyl)amino)-4-(4-fluorophenyl)thiazole-5-carbonitrile hydrochloride], the IC50 in data set [1] is more than 800 nM; in data set [2] it was 200 to 800 nM.
`CCc1nc2ccc(-c3cnc(C4CCN(CC(=O)N5CCCC5)CC4)nc3)cn2c1N(C)c1nc(-c2ccc(F)cc2)c(C#N)s1` [Compound 104, 2-((2-ethyl-6-(2-(1-(2-oxo-2-(pyrrolidin-1-yl)ethyl)piperidin-4-yl)pyrimidin-5-yl)imidazo[1,2-a]pyridin-3-yl)(methyl)amino)-4-(4-fluorophenyl)thiazole-5-carbonitrile] gave an IC50 against hATX/ENPP2 of 20 to 200 nM.
In turn, `CCc1nc2ccc(-c3cnc(N4CC(NC5CC5)C4)nc3)cn2c1N(C)c1nc(-c2ccc(F)cc2)c(C#N)s1` [Compound 105, 2-((6-(2-(3-(cyclopropylamino)azetidin-1-yl)pyrimidin-5-yl)-2-ethylimidazo[1,2-a]pyridin-3-yl)(methyl)amino)-4-(4-fluorophenyl)thiazole-5-carbonitrile] came in with an IC50 against hATX/ENPP2 of 20 to 200 nM.
On hATX/ENPP2, `CCc1nc2ccc(-c3cnc(N4CC(NC5CCC5)C4)nc3)cn2c1N(C)c1nc(-c2ccc(F)cc2)c(C#N)s1` [Compound 106, 2-((6-(2-(3-(cyclobutylamino)azetidin-1-yl)pyrimidin-5-yl)-2-ethylimidazo[1,2-a]pyridin-3-yl)(methyl)amino)-4-(4-fluorophenyl)thiazole-5-carbonitrile] returned an IC50 of 20 to 200 nM.
Still for that read-out and setting: under `CCc1nc2ccc(-c3cnc(N4CCC(NC5CC5)CC4)nc3)cn2c1N(C)c1nc(-c2ccc(F)cc2)c(C#N)s1` [Compound 107, 2-((6-(2-(4-(cyclopropylamino)piperidin-1-yl)pyrimidin-5-yl)-2-ethylimidazo[1,2-a]pyridin-3-yl)(methyl)amino)-4-(4-fluorophenyl)thiazole-5-carbonitrile] stands 20 to 200 nM; under `CCc1nc2ccc(-c3cnc(N4CCC(NC5CCC5)CC4)nc3)cn2c1N(C)c1nc(-c2ccc(F)cc2)c(C#N)s1` [Compound 108, 2-((6-(2-(4-(cyclobutylamino)piperidin-1-yl)pyrimidin-5-yl)-2-ethylimidazo[1,2-a]pyridin-3-yl)(methyl)amino)-4-(4-fluorophenyl)thiazole-5-carbonitrile], 20 to 200 nM; under `CCc1nc2ccc(-c3cnc(N4CCN(C(=O)C5CC5)CC4)nc3)cn2c1N(C)c1nc(-c2ccc(F)cc2)c(C#N)s1` [Compound 110, 2-((6-(2-(4-(cyclopropanecarbonyl)piperazin-1-yl)pyrimidin-5-yl)-2-ethylimidazo[1,2-a]pyridin-3-yl)(methyl)amino)-4-(4-fluorophenyl) thiazole-5-carbonitrile], 20 to 200 nM.
The same measure, in the same setting: under `CCc1nc2ccc(-c3cnc(N4CCN(C(=O)C5CN(C6CC6)C5)CC4)nc3)cn2c1N(C)c1nc(-c2ccc(F)cc2)c(C#N)s1` [Compound 111, 2-((6-(2-(4-(1-cyclopropylazetidine-3-carbonyl)piperazin-1-yl)pyrimidin-5-yl)-2-ethylimidazo[1,2-a]pyridin-3-yl)(methyl)amino)-4-(4-fluorophenyl)thiazole-5-carbonitrile] stands 20 to 200 nM; under `CCc1nc2ccc(-c3ccc(N4CCN(C(=O)C5CCCC5)CC4)nc3)cn2c1N(C)c1nc(-c2ccc(F)cc2)c(C#N)s1` [Compound 112, 2-((6-(6-(4-(cyclopentanecarbonyl)piperazin-1-yl)pyridin-3-yl)-2-ethylimidazo[1,2-a]pyridin-3-yl)(methyl)amino)-4-(4-fluorophenyl)thiazole-5-carbonitrile], 20 to 200 nM.
In the case of `CCc1nc2ccc(-c3ccc(N4CCC(C(=O)N5CCC5)CC4)nc3)cn2c1N(C)c1nc(-c2ccc(F)cc2)c(C#N)s1` [Compound 122, 2-((6-(6-(4-(azetidine-1-carbonyl)piperidin-1-yl)pyridin-3-yl)-2-ethylimidazo[1,2-a]pyridin-3-yl)(methyl)amino)-4-(4-fluorophenyl)thiazole-5-carbonitrile], at hATX/ENPP2, the IC50 is not above 20 nM. For the same molecule, in data set [3], the AUC(0-inf) came to 47700 ng·h/mL, the bioavailability came to 57.8% and the concentration peaked (Cmax) at 7000 ng/mL.
`CCc1nc2c(C)cc(N3CCN(CC(=O)N4CC(O)C4)CC3)cn2c1N(C)c1nc(-c2ccc(F)cc2)c(C#N)s1` [GPLG-1690, Ziritaxestat, reference compound]: the IC50 in data set [1] and in data set [2] was more than 800 nM in each case.
